Measurements from patent publication US20210017569A1, “Ligase Screening Assay” (UNIVERSITY OF DUNDEE, priority 2018, published 2021).

Key:
Type in all cases: biochemical
GST-MYCBP2 = target: T1, GST-MYCBP2 (Homo sapiens, UniProt O75592); assay: Multiple turnover amino acid and peptide panel discharge assays; conditions: for function as proxy substrate (hydroxy probe) of MYCBP2: tested herein as proxy substrates; for discharge activity / Ub modification in amino acid panel: amino acid nucleophile, UBE2D3~Ub, MYCBP2cat
T1 construct: GST-tagged MYCBP2cat (Ser4378-Phe4640), wt and mutants, were expressed at 16° C. overnight; made in house; host or cells: E. coli BL21-DE3
T1 sequence (O75592 4416-4678 limits assumed): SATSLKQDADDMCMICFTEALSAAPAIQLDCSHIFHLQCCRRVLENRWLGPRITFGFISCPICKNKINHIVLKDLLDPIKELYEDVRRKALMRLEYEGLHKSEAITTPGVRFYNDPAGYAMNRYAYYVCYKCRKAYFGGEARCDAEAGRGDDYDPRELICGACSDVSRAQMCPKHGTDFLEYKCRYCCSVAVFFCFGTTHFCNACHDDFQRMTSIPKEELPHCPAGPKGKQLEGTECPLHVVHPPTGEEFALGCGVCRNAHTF
Description: Stock solutions (0.5 M) of amino acids were dissolved in MQ water and pH was adjusted to pH ˜8. Peptides of the sequence Ac-EGXGN-NH2 (X=K, S or T) were obtained from Bio-Synthesis Inc. Stock peptide solutions (200 mM) were dissolved in MQ water and pH was adjusted to pH ˜8. An E2 (UBE2D3) charging reaction was carried out in buffer (40 mM Na2HPO4—HCl pH 8.0, 150 mM NaCl, 0.5 mM TCEP) containing UBE1 (250-500 nM), UBE2D3 (20 μM), Ub (50 μM), or Cy3B-Ub (25 μM), MgCl2 (5 mM) and ATP 10 (mM). The reaction was incubated at 37° C. for 15 minutes and then equilibrated to 23° C. for 3 minutes. An equivalent volume of nucleophile sample containing small molecule/peptide nucleophile (100 mM) and GST-MYCBP2 (10 μM) was then added and incubated at 23° C. Samples were taken at the specified time points and analyzed as described for Tris/glycerol-mediated E2 discharge assay.
Cy3B-Ub was visualized using a Chemidoc Gel Imaging System (Biorad). LC-MS was carried out as described for Tris/glycerol discharge but amino acid substrate samples were quenched by the addition of 2:1 parts quenching solution (75% acetonitrile, 2% TFA) and peptide substrate samples were quenched by addition of 1:1 parts quenching solution.

MYCBP2 = target: T2, MYCBP2 (Homo sapiens, UniProt O75592); assay: Tris/glycerol-mediated E2 discharge assay with LC-MS analysis; conditions: Tris 50 mM and glycerol ~65 mM in assay buffer
T2 construct: GST-tagged MYCBP2cat (Ser4378-Phe4640), wt and mutants, were expressed at 16° C. overnight; GST (N); made in house; host or cells: E. coli BL21-DE3
T2 sequence (O75592 4416-4678 limits assumed): T1 sequence (O75592 4416-4678 limits assumed)
Description: Assays were carried out in buffer (50 mM Tris-HCl pH 7.5, 150 mM NaCl, 0.5 mM TCEP, 5 mM MgCl2) containing the indicated MYCBP2 mutant (15 μM), UBE1 (1.5 μM), UBE2D3 (15 μM), Ub (37 μM) and ATP (10 mM). The reactions were incubated at 37° C. for 30 minutes. Reactions were terminated by the addition of 4×LDS loading buffer (with and without ˜680 mM 2-mercaptoethanol). A C4572S sample was further incubated with 0.14 N NaOH at 37° C. for 20 minutes and samples were resolved by SDS-PAGE (4-12% NuPage gel) and visualized by Coomassie staining.
Reactions were prepared as described for discharge assay. After 30 minutes, the reaction was analyzed using an Agilent 1200/6130 LC-MS system (Agilent Technologies) using a 10-75% gradient over 20 minutes (buffer A=H2O+0.05% TFA, buffer B=acetonitrile+0.04% TFA).

MYCBP2cat = target: T3, MYCBP2cat (Homo sapiens, UniProt O75592); assay: NMNAT2 ubiquitination assay; conditions: base lability and thiol resistance test
T3 construct: GST-tagged MYCBP2cat (Ser4378-Phe4640), wt and mutants, were expressed at 16° C. overnight; GST (N, cleaved yes); made in house; host or cells: E. coli BL21-DE3
T3 sequence (O75592 4416-4678 limits assumed): T1 sequence (O75592 4416-4678 limits assumed)
Description: NMNAT2 (5 μM) was mixed with E1 (500 nM), UBE2D3 (10 μM), MYCBP2cat (10 μM), Ub (50 μM), ATP (10 mM) and made up with 10×pH 7.5 buffer (40 mM Na2H2PO4 pH 7.5, 150 mM NaCl, 5 mM MgCl2, 0.5 mM TCEP). The reactions were incubated at 37° C. for 1 hour and terminated by the addition of 4×LDS loading buffer (either non-reducing or reducing). For base lability test, reactions were supplemented with 0.14 N NaOH and then further incubated at 37° C. for 20 minutes.

GST-MYCBP2cat = target: T4, GST-MYCBP2cat (Homo sapiens, UniProt O75592); assay: Multiple turnover E2 discharge panel (threonine discharge); conditions: 17 E2s tested
T4 construct: GST-tagged MYCBP2cat (Ser4378-Phe4640), wt and mutants, were expressed at 16° C. overnight; made in house; host or cells: E. coli BL21-DE3
T4 sequence (O75592 4416-4678 limits assumed): T1 sequence (O75592 4416-4678 limits assumed)
Description: E2s were screened for threonine discharge activity with GST-MYCBP2cat as described for the amino acid panel. E2s were also incubated in the presence of threonine but in the absence of GST-MYCBP2cat. These samples provided a reference to distinguish between intrinsic E2˜Ub instability and E3-dependent discharge.

## O=S(=O)(O)CCN1CCN(CCO)CC1 [HEPES, 4-(2-hydroxyethyl)-1-piperazineethanesulfonic acid]
GST-MYCBP2
  function as proxy substrate (hydroxy probe) of MYCBP2: functional

## OCC(O)CO [glycerol]
MYCBP2
  conversion of Ub into condensation product with nucleophile: quantitatively converted
GST-MYCBP2
  function as proxy substrate (hydroxy probe) of MYCBP2: functional

## NCCCC[C@H](N)C(=O)O [lysine]
GST-MYCBP2
  discharge activity / Ub modification in amino acid panel: low level

## N[C@@H](CO)C(=O)O [serine]
GST-MYCBP2
  function as proxy substrate (hydroxy probe) of MYCBP2: functional

## C[C@@H](O)[C@H](N)C(=O)O [threonine]
GST-MYCBP2
  discharge activity / Ub modification in amino acid panel: strikingly enhanced
  function as proxy substrate (hydroxy probe) of MYCBP2: functional
GST-MYCBP2; amino acid substrates, MS-based quantification of Ub esterification
  selectivity for threonine over serine: ~10 fold
GST-MYCBP2; peptides Ac-EGXGN-NH2 (X=K, S or T)
  Threonine selectivity in a peptide context: 3 fold

## NMNAT2: Nicotinamide Mononucleotide Adenyltransferase, putative MYCBP2 substrate
MYCBP2cat
  ubiquitination by MYCBP2cat in vitro: hydroxide labile but thiol resistant ubiquitination

## UBE2D1: E2 conjugating enzyme
GST-MYCBP2cat
  E2 partner activity with MYCBP2cat: robust activity

## UBE2D3: E2 conjugating enzyme, N-terminally 6His-tagged recombinant protein
GST-MYCBP2cat
  E2 partner activity with MYCBP2cat: robust activity

## tris(hydroxymethyl)aminomethane
MYCBP2
  conversion of Ub into condensation product with nucleophile: quantitatively converted
GST-MYCBP2
  function as proxy substrate (hydroxy probe) of MYCBP2: functional
